Results on 45 compounds are retold here after PubChem BioAssay (NCI).

What all share (test): NCI-60 cell line screen, 48 h
The subject of test [1] is MDA-N.
In test [2] the test system is DMS 273 small cell lung.
Test [3] has as its system LXFL 529 NSCLC.
Test [4] concerns KM20L2 colon.
Test [5] has as its system SNB-78 CNS.
Test [6] deals with DMS 114 small cell lung.
Test [7] deals with RXF-631 renal.
Test [8] deals with M19-MEL melanoma.
Test [9] deals with HOP-18 NSCLC.

Values after ≈ are worked out from the molar mass of the structure shown. Values joined by “and” are separate entries in the source; they are usually repeats but may differ in a detail not shown here. Equal entries are not always repeated.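 Following 48 hours of exposure in 96-well plates, responses at five concentrations were used to interpolate endpoints linearly. Here, GI50 denotes the concentration required for 50% inhibition of growth. TGI: total growth inhibition.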 Active and inactive are the calls of the source. No stated cut-off is given here; in the data, active means GI50 below about 0.43 µM; inactive means the rest.

As for `CN(N=O)c1ccc(/C=C/c2ccnc3ccccc23)cc1`, the TGI in test [1] was > 100 µM.

On to `O=C(CC1(O)C(=O)Nc2ccccc21)c1cccc(O)c1` (stereo unspecified), for which the TGI in [2], in [3], in [4], in test [5], in [6] and in [7] was > 100 µM in each case. The TGI in test [8] is > 100 µM.

On to `CCN(CC)c1ccc(N=Nc2ccc(-c3nc4cccnc4s3)cc2)cc1`, for which the TGI in [3], in test [4], in test [5] and in [6] was > 100 µM each time.

In the case of `CCOC(=O)C(=O)CC(=O)C(Br)C(Br)c1ccc(Cl)cc1` (stereo unspecified), the TGI in test [2] is > 100 µM; in [3], 31.9 µM; in [4] it was > 100 µM; in test [5], > 100 µM; in test [6], > 100 µM; in test [7] it was > 100 µM. In test [8], this compound had a TGI of 52.4 µM.

Consider `O=C1CCNC/C1=C\c1ccccc1`, for which the TGI in test [2] is 69.1 µM; in test [3], 34.5 µM; in [4] it was 28.4 µM; in test [5], > 100 µM; in [6], 73.4 µM; in test [7], > 100 µM. In [8], the TGI was 39.3 µM.

Consider `COc1ccc2c(c1O)[C@@]13CCCC=C1[C@@H](C2)N(C)CC3`, for which the TGI in test [1] is > 100 µM.

Turning to `Nc1ncc(CN2CCCC2)c(-c2ccccc2O)n1`, the TGI in [2], in test [3], in test [4], in test [6], in [9] and in [8] was > 750 µM each time.

Consider `COc1cc2c(cc1O)CCN[C@@]21CS[C@H]2c3c(OC(C)=O)c(C)c4c(c3C(COC1=O)N1C2C2NC(Cc3cc(C)c(OC)c(O)c32)[C@@H]1O)OCO4` (stereo partly specified), for which the GI50 in test [2] was 4.5 ng/mL (≈ 6.02 nM); in test [5], 0.00037 ng/mL and 4.5 ng/mL; in [6], 4.5 ng/mL (≈ 6.02 nM); in test [8], 4.5 ng/mL (≈ 6.02 nM). Moreover, the result in test [3], in [9] and in [7] was inactive. The TGI was found to be 932 ng/mL in [5], 4.5 ng/mL in test [6] and 4.5 ng/mL in [8].

In the case of `CO[C@H]1C[C@H](O[C@H]2CC[C@@]3(C)[C@H](CC[C@@H]4[C@@H]3CC[C@]3(C)[C@@H](C5=CC(=O)OC5)CC[C@]43O)C2)O[C@H](C)[C@H]1O`, the TGI in test [1] was 0.114 µM.

For `CC(C)(c1ccc(C=O)o1)c1ccc(C(C)(C)c2ccc(C=O)o2)o1`, the TGI in [2], in [3], in [4], in test [5], in test [9] and in test [7] was > 100 µM throughout.

In test [1], `COc1cc2c3c(c4ccc(O)cc4c2cc1OC)[C@@H](O)[C@@H]1CCCN1C3` yielded a TGI of 0.145 µM.

As to `O=[N+]([O-])c1ccc(N=P(c2ccccc2)(c2ccccc2)c2ccccc2)n2nnnc12`, the TGI in test [2], in [3], in test [4], in [6], in test [9] and in test [8] was > 100 µM each time.

With `COC1=CC(=O)C2(C=C1OC)OC[C@H]1Oc3c(ccc4c3C=CC(C)(C)O4)C(=O)[C@H]12` (stereo partly specified), the TGI in test [2] was > 100 µM; in [3], > 100 µM; in test [4], > 100 µM; in [5] it was > 100 µM; in test [6], 94.5 µM; in test [7], > 100 µM. Moreover, in test [8], the TGI was > 100 µM.

As to `COc1cc2c3c(c4cc(OC)c(OC)cc4c2cc1OC)CN1CCC[C@H]1C3`, in test [1], the GI50 was 0.0817 µM and < 0.0129 µM; the TGI was 6.57 µM and 0.776 µM.

As to `O=C(O)CN(CCN(CC(=O)O)CC(=O)O)CC(=O)O.[Cu+2].[Na+]`, in test [1], the GI50 is > 100 µM and the TGI is > 100 µM.

`CCOC(=O)Nc1cc2c(c(N)n1)N=C(c1ccc(Cl)cc1Cl)CN2` gave a TGI in test [1] of 18.6 µM.

As for `O=C1c2c(c3c4ccccc4n(CC4CO4)c3c3[nH]c4ccccc4c23)C(=O)N1Cc1ccccc1` (stereo unspecified), the TGI in test [2], in test [3], in [5], in [6], in test [7] and in test [8] was > 100 µM each time.

For `CCCCCCNC(=O)CCN(C(=O)O)S(=O)(=O)c1ccc(NC(=O)c2ccccc2)cc1`, the TGI is > 55.2 µM in test [2]; > 100 µM in test [3]; > 100 µM in test [4]; > 100 µM in [5]; > 53.1 µM in test [6]; > 100 µM in test [9]. Moreover, in test [8], the TGI was > 81.6 µM.

As for `COc1cccc(NC(=O)/C(CS(=O)(=O)CCC(C(C)=O)C(C)=O)=N\NC(C)(C)C)c1`, the TGI in test [2], in test [3], in [4], in test [5], in test [6] and in [9] was > 100 µM throughout.

On to `COc1ccc(N2C(=O)[C@@H]3[C@@H]4CC(C)CC[C@@H]4c4c([nH]c5ccccc45)[C@@H]3C2=O)cc1` (stereo partly specified), for which the TGI was 44.3 µM in test [2]; > 88 µM in [3]; > 100 µM in [4]; 27.2 µM in [5]; > 59.5 µM in [6]; 14 µM in test [9]. The TGI in test [8] is > 100 µM.

Compound `COc1oc(C2C/C(=C/C(C)=C/C(C)=C/C(C)=C/c3ccc([N+](=O)[O-])cc3)CO2)c(C)c(=O)c1C` (stereo unspecified) came in with a TGI in [1] of 23.9 µM.

Consider `COC1=CC(=O)[C@@]2(C)C(C)[C@H](c3ccccc3)[C@H]2C1=O` (stereo partly specified), for which the TGI in test [2], in test [3], in test [4], in test [7] and in [8] was > 100 µM in each case.

Turning to `CC(=O)OC1COC(N2C(=O)C(=O)c3ccccc32)C(OC(C)=O)C1OC(C)=O` (stereo unspecified), the TGI in [2], in test [3], in test [4], in test [5], in test [6] and in test [7] was > 100 µM in each case. The TGI in test [8] was > 100 µM.

Consider `CSCSCC(CO)NC(=O)/C=C/c1c(C)[nH]c(=O)[nH]c1=O` (stereo unspecified), for which the TGI in test [2], in test [3], in [4], in test [5], in test [6] and in [9] was > 100 µM throughout. The TGI in test [8] was > 100 µM.

With `O=C(CC(C(=O)c1ccsc1)c1cccs1)c1cccs1` (stereo unspecified), the TGI in test [2], in [3], in [4], in test [5], in test [6] and in [8] was > 100 µM throughout.

Regarding `C#Cc1c(C)c(/C=C/C(C)=C\C(=O)OC)n(C)c1C`, the TGI in [2], in test [3], in test [4], in test [5], in test [6] and in test [9] was > 100 µM throughout. Further, the TGI in [8] was > 100 µM.

As for `Cc1[nH]c2c(C)c3c([nH]c4ccc(Cl)cc43)c(C)c2c(=O)c1C`, the TGI was 96.1 µM in [2]; 32.6 µM in test [1]; > 100 µM in test [5]; 83.3 µM in test [6]; > 100 µM in [9]; 54.9 µM in [8].

As to `CCN(CC)C(=O)Cc1[nH][nH]c(=O)c1C(=O)N(CC)CC`, the TGI in test [2], in test [3], in test [4], in test [5], in [6] and in [9] was > 100 µM each time. The TGI in [8] is > 100 µM.

For the compound `Nc1nc(N)c(CCCCc2ccc([N+](=O)[O-])cc2)c(N)n1`, the TGI in [2], in [3], in [1], in [4], in test [5] and in test [6] was > 100 µM each time. Also, the TGI in [9] and in [8] was > 100 µM throughout.

On to `O=C1c2ccccc2C(=O)c2c1ccc1c3ccccc3n(-c3ccccc3)c21`, for which the TGI is 34.4 µM in [2]; 30.7 µM in test [3]; > 51.4 µM in test [1]; 53.5 µM in [4]; 49.3 µM in [5]; 27.6 µM in test [9]. Further, the TGI in test [7] was determined as 20.7 µM; in [8] it was 38.6 µM.

Take `CC1=C(\C=C/C(C)=C/C=C/C(C)=C/C=C/C=C(C)\C=C\C=C(C)/C=C/C2=C(C)CCCC2(C)C)C(C)(C)CCC1`: the TGI in [1] was > 100 µM.

On to `C=C1C(=O)C23C(O)CC4C(C)(C)CCC(O)C4(C)C2CC(OC(C)=O)C1[C@H]3O` (stereo partly specified), for which the TGI in [2] worked out at 3.79 µM; in test [3], 2.41 µM; in test [1], 20.6 µM; in [4] it was 11.1 µM; in test [9], 3.82 µM; in test [7] it was 15.7 µM. The same compound came in with a TGI in test [8] of 3.22 µM.

As to `N#Cc1sc2nc3c(c(-c4ccccc4)c2c1N)CCCC3`, the TGI in test [2], in test [3], in [5] and in test [8] was > 100 µM in each case.

`CCOC(=O)C(Oc1ccc(OC)c2c1C(=O)CCC2)c1ccccc1` (stereo unspecified): the TGI in test [2], in test [3], in test [4], in test [5], in [6] and in test [8] was > 100 µM each time.

Turning to `NN=C1/C(=C\c2ccccc2)CCC/C1=C/c1ccccc1`, the TGI in test [2] is > 100 µM; in [3], > 100 µM; in [4], > 100 µM; in test [5], > 100 µM; in test [6], 75.1 µM; in test [9] it was > 100 µM. For the same compound, in test [8], the TGI is > 100 µM.

As for `COC(=O)CC(=O)OC1C[C@@H]2CCC3C(C)(C)CCC[C@]3(C)C23CC[C@@]1(C)C3` (stereo partly specified), the TGI was determined as 37.6 µM in test [4], 42.5 µM in [5], 37.9 µM in [6] and 36.3 µM in test [8].

Turning to `COc1ccc2c(Cl)cc(NC(=S)Nc3ccccc3)nc2c1`, in test [1], the TGI was found to be 32.4 µM.

For the compound `COC(=O)C(=O)C(C(=O)C(=O)Nc1cc(C)ccc1C)c1nc2ccccc2[nH]c1=O` (stereo unspecified), the TGI in [1] is > 100 µM.

`Cc1cc2c3ccccc3n3c2c2c1OC1(C)CCC(C2C1)C3(C)C` (stereo unspecified): the TGI in test [2], in test [3], in test [4], in test [5], in test [6] and in test [8] was > 25 µM throughout.

In the case of `O=C(Nc1c[nH]c(=O)[nH]c1=O)Oc1ccccc1`, the TGI in [1] was > 100 µM.

Consider `NP1(Oc2ccc(F)cc2)=NP(N)(Oc2ccc(F)cc2)=NP(Oc2ccc(F)cc2)(Oc2ccc(F)cc2)=N1` (stereo unspecified), for which the TGI in test [1] amounted to 19 µM.

For the compound `COC(OC)c1cccc2c1C(=O)CCC1(CC2)OCCCCO1`, the TGI in test [2], in test [3], in test [4], in [5], in test [6] and in [9] was > 100 µM each time. In test [8], the TGI was > 100 µM.

Consider `CN(C(=O)C12C3C4C1C1C2C3C41C#N)C(C)(C)C` (stereo unspecified), for which the TGI in [2], in test [3], in test [4], in test [5], in test [6] and in test [7] was > 100 µM throughout. Moreover, in [8], the TGI was > 100 µM.

Turning to `CN1C/C(=C\c2ccccc2)C2=NN(C(N)=S)[C@H](c3ccccc3)[C@@H]2C1`, the TGI in [2], in test [3], in test [4], in test [5] and in test [8] was > 100 µM throughout.

`COc1cc2c(c3oc4c(O)cccc4c(=O)c13)CC(C(C)(O)CCl)O2` (stereo unspecified) registered a TGI in test [1] of 2.45 µM.
